Experimental data taken from patent US4469689A, “Sulfonate containing ester prodrugs of corticosteroids” (The Upjohn Company, priority 1983, dated 1984).
Counter-ions that a name gives are not always drawn.

Assays:
[1] = hydrolysis of dilute aqueous solutions, t90% estimated from hydrolysis rate constants at 25° C. (Table I); type: physicochemical; conditions: pH 4.75 (pH of optimum stability), dilute aqueous solution
Method: From the hydrolysis rate constants determined at 25° C. at various pH vlaues for dilute aqueous solutions of the compounds of the invention, estimates of t90% (time for 10% hydrolysis) may be calculated.

mice = conditions: M. Kawamura et al., Yakugaku Zasshi, 91, 871 (1971); cited from earlier work
[2] = background statement; cited from earlier work
[3] = base catalyzed hydrolysis rate in concentrated versus dilute solution; type: physicochemical; conditions: 0.267 M vs 5×10^-4 M
Excerpt: The actual shelf-life of formulations of the above compounds would be expected to differ fom the above estimates for two reasons: (1) The solubility of the parent corticosteroid formed on hydrolysis may be exceeded prior to 10% degradation of the ester. Micelle formation by the intact prodrugs of Formula I results in solubilization of free corticosteroid thereby prolonging shelf-life. The degree of solubilization varies with the ester concentration, nature of the pro-moiety, and the structure of the corticosteroid. (2) Micelle formation by the intact prodrug in concentrated solutions results in stabilization of the ester linkage toward base catalyzed hydrolysis. For example, the base catalyzed hydrolysis rate in a 0.267 M solution of the compound of Example 1 is less than one-seventh the rate in a 5×10^-4 M solution.

For C[C@H]1C[C@@H]2[C@H]([C@@H](O)C[C@@]3(C)[C@H]2CC[C@]3(O)C(=O)COC(=O)CCCCCCCCCCS(=O)(=O)O)[C@@]2(C)C=CC(=O)C=C12 [Example 2, 6α-Methylprednisolone, 21-(11-sulfohendecanoate), sodium salt], the “t90% (time for 10% hydrolysis)” value [1] was 3.0 years.
In the case of C[C@]12CCC(=O)C=C1CC[C@@H]1[C@@H]2[C@@H](O)C[C@@]2(C)[C@H]1CC[C@]2(O)C(=O)COS(=O)(=O)O [21-sulfate of hydrocortisone], the activity in mice (mice) is listed as “inactive”.
In the case of C[C@]12C=CC(=O)C=C1CC[C@@H]1[C@@H]2C(=O)C[C@@]2(C)[C@H]1CC[C@]2(O)C(=O)CO [prednisone], the water solubility [2] is listed as “generally poorly water soluble”.
In the case of C[C@H]1C[C@@H]2[C@H]([C@@H](O)C[C@@]3(C)[C@H]2CC[C@]3(O)C(=O)COC(=O)CCCCCS(=O)(=O)O)[C@@]2(C)C=CC(=O)C=C12 [Example 1, 6α-Methylprednisolone, 21-(6-sulfohexanoate), sodium salt], the “base catalyzed hydrolysis rate in a 0.267 M solution relative to the rate in a 5×10^-4 M solution” value [3] is reported as “less than one-seventh” and the “t90% (time for 10% hydrolysis)” value [1] is reported as 2.7 years.
